Data: publication PMC5766510, “Development of a PET radioligand for potassium channels to image CNS demyelination” (Scientific Reports, 2018)
Like-named read-outs stand apart in the source and are kept apart here.

How the values were obtained:
[1] = tested on: voltage-gated K^+ channels in demyelinated axons; format: in vivo
From the text: Thirty minutes post-injection of the radiolabeled drug, the mice were euthanized and their brains dissected without perfusion to prevent washout of the drug. After dissection, the brains were frozen, cut into thin sections and collected on glass slides. The brain slices were then apposed to autoradiography film to reveal the distribution of the drug in the brain at the time of death. After autoradiography, the same brain sections were stained with the myelin-specific dye Luxol fast blue (LFB).
Number of animals per group was determined using statistical power analysis (α = 0.05, power = 0.80). […] The brains were embedded in Optimal Cutting Temperature (Tissue-Tek), frozen in dry ice and stored at −80 °C. Frozen brains were sliced in a cryostat at 20 μm thickness, the sections mounted on Superfrost Plus slides (Fisher) and allowed to dry at room temperature for at least 30 min. Next, the slides were placed in a cassette in front of autoradiography film (Denville scientific) sealed in the dark at −80 °C for 14–21 days. After that time the cassette was allowed to warm up to room temperature and the films developed inside a dark room using a film processor (Konica). The films were then scanned using an EPSON Perfection V750 scanner (Positive film mode, 8-bit grayscale, 1,200 dpi). After digitizing the radiographs, the same slides were stained using Luxol fast blue (LFB) and cresyl violet. For [^18F]3-F-4-AP autoradiography in rats we injected 1–2 μCi per g. After euthanasia, the brains were dissected without perfusion, frozen in dry ice and sliced in a cryostat at −20 °C.
1 min) and left in LFB solution (0.1 g LFB, 100 mL of 95% EtOH, 0.5 mL glacial acetic acid) overnight at 56 °C. Next morning, the slides were rinsed in 95% EtOH and ddH2O to remove the excess of dye, differentiated in lithium carbonate solution (0.05 g in 100 mL) for 30 s, 70% EtOH for 30 s and rinsed in ddH2O. The differentiation steps were repeated until the gray matter was clear and the white matter appeared blue and sharply defined. Afterwards, the slides were counterstained in cresyl violet (0.1 g in 100 mL of ddH2O, 0.1 mL acetic acid) for 30 s. The slides were differentiated in 95 % EtOH for 5 min and dehydrated (100% EtOH, 2x 5 min ea; 100 % xylene, 2 x, 5 min ea) before mounting with permount (Electron Microscopy Sciences). After staining, images of the slides were collected using the CRi Pannoramic Whole Slide Scanner (Perkin Elmer) equipped with a 20x objective.
Image analysis: The histology images were superimposed on the autoradiography images using Photoshop. The histology images were used to precisely outline the corpus callosum, the cortex and a ~1.5 mm-wide area around the brain (background). The autoradiographic signal from each area was quantified. The background signal was subtracted from the all the areas and defined as zero. The signal intensity of the cortex was set as 1.0 and the signal intensity of the corpus callosum was measured relative to the cortex. Color images were created using the 6-shades look up table (LUT) in ImageJ. […]

[2] = biological target: non-inactivating Shaker channel from D. melanogaster (Drosophila melanogaster, UniProt P08510, DEL6-46); assay: cell-based
Description: See SI for additional details.
(§1) CI95 = [Upper Limit. Lower Limit]; where Upper Limit = 10^(logEC50+s.d.) and Lower Limit = 10^(logEC50−s.d.). […]
exchanging the external solution (top and guard chambers) several times. After application, cells were voltage-clamped at least 5 min at 0mV, then voltage-clamped at -80mV for 1-2 min.
K+ currents were generated by applying series of 50 ms pulses from -70 mV to +40 mV in increments of 10 mV. The effect of the drug was assessed by measuring the relative intensity of the K+ current before and after applying varying drug concentration at a constant voltage (typically +20 mV) and at the end of the test-pulse. Data acquisition and analysis of the traces was performed using Gpatch software (Department of Anesthesiology, University of California, […]
Los Angeles). […]

[3] = tested on: K^+ channels in explanted mouse optic nerves; assay: Compound action potential (CAP) of dissected mouse optic nerves; details: for activity in enhancing the CAP / IC50: dysmyelinated (Shiverer) optic nerves; for IC50: CAP enhancement, given as IC50; for times less potent: from EC50 values, versus 4-AP and 3-F-4-AP
Description: Therefore, we tested the effects of these compounds on the compound action potential (CAP) of dysmyelinated optic nerves from control and Shiverer mice (Fig. 2E).
Optic nerves were dissected from 12–16 week old Shiverer (Mbp^shi/shi) and control mice (Mbp^+/shi and Mbp^+/+). Compound action potentials (CAP) were recorded using suction electrodes as described by Stys et al.[91]. See SI for additional details.
as §1
Dissection of optic nerves: Optic nerves were dissected from 12-16 week old Shiverer (Mbpshi/shi) and control mice (Mbp+/shi and Mbp+/+). Mice were euthanized by CO2 overdose and the optic nerves were quickly dissected between the eyeball and the optic chiasm. The nerves […]
Optic nerve electrophysiology: Compound action potentials (CAP) from dysmyelinated nerves (Shiverer mice, Mbpshi/shi) and myelinated nerves (litermate controls, Mbp+/shi and Mbp+/+) were […]
between two suction electrodes (stimulus and recording electrodes) forming a tight seal on each end. Two additional electrodes were placed in the bath for reference. A supramaximal pulse (250 mV, 20 μs) was applied at the stimulating end of the nerve. The resulting CAP was amplified from the recording electrode using a high impedance low-noise amplifier (EG&G Princeton Applied Research Corporation) sampled at 100 kHz and filtered at 10 kHz. To assess […]
concentrations to the recording chamber after the CAP was allowed to stabilize for 5 min while […]
pulsing repeatedly. After each measurement, the chamber was washed for 5 min (flow 1 […]
mL/min) with oxygenated aCSF. […]
conduction and the temperature was monitored throughout the experiment. CAP recordings were acquired with a SBC6711 board (Innovative Integration) controlled by in-house written software. Analysis of the traces was done using an in-house software. The half-maximal […]
amplitude vs. concentration and fitted to the Hill equation using Origin. […]
Compound action potential of nerve recorded by suction electrode: a theoretical and experimental analysis. […]

C57Bl/6 J mice = assay: In vivo effects (signs of neuroexcitation) after intraperitoneal injection; details: mouse, different doses
Description: In this experiment, we injected each drug intraperitoneally at different concentrations into mice and looked for signs of neuroexcitation (Fig. 3B).
10-week-old female C57Bl/6 J mice were given an intraperitoneal injection of the drug under investigation and monitored continuously for 4 h. […] At least 72 h passed between injections to the same mice.

in vitro = details: mouse, microsomes
[4] = relative K^+ current at +20 mV, Hill equation fit, read-out: Half-maximal inhibitory concentration (IC50)

Sequence of non-inactivating Shaker channel from D. melanogaster (P08510 other isoform, or with tags, fused parts or gaps DEL6-46): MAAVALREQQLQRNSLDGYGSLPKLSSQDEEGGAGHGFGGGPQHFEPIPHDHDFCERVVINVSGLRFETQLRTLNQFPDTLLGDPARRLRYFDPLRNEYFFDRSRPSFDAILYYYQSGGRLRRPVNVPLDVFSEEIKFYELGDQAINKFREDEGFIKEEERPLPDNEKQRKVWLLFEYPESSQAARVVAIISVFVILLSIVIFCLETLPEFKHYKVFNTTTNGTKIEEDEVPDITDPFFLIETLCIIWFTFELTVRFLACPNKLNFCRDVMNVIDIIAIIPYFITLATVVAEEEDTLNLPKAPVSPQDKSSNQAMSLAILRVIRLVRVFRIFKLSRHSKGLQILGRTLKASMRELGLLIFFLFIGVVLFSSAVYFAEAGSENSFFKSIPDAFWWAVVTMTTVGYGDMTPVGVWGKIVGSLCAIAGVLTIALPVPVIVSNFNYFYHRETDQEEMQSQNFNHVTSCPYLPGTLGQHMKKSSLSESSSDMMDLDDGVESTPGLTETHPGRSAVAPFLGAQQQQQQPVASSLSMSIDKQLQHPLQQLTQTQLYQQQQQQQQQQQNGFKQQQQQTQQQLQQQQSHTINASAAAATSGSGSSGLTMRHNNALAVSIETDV

SMILES: O=[14CH]C[C@@H](O)[C@H](O)[C@H](O)CO [2-DG, [1-^14C]2-deoxy-D-glucose, reference compound]
- difference in brain distribution between wild type and Shiverer mice ([1]; mouse, in vivo): no differences were seen

SMILES: Nc1ccnc(F)c1 [2-F-4-AP, 2-fluoro-4-aminopyridine]
- IC50 [2, 4]: > 10 mM
- activity in enhancing the CAP [3]: inactive
- signs of neuroexcitation, summary in words relative to 4-AP (C57Bl/6 J mice): did not cause any effects at doses up to 20 times greater

SMILES: Nc1ccncc1CCF [3-FEt-4-AP, 3-fluoroethyl-4-aminopyridine]
- IC50 [2]: > 10 mM
- activity in enhancing the CAP [3]: inactive

SMILES: Nc1ccncc1CF [3-FMe-4-AP, 3-fluoromethyl-4-aminopyridine]
- IC50 [2, 4]: 7.45 mM
- IC50 [3]: 0.386 mM
- times less potent [3]: 4–6 times
- signs of neuroexcitation, summary in words relative to 4-AP (C57Bl/6 J mice): half as potent as 4-AP

SMILES: Nc1ccncc1CO [3-HOMe-4-AP, 3-hydroxymethyl-4-aminopyridine, reference compound]
- IC50 [2]: 4.38 mM
- IC50 [3]: 0.386 mM
- times less potent [3]: 4–6 times
- signs of neuroexcitation, summary in words relative to 4-AP (C57Bl/6 J mice): did not cause any effects at doses up to 20 times greater

SMILES: CC(C)NCC(O)COc1cccc2ccccc12 (centres unmarked) [Propranolol, propranolol]
- half-life (in vitro): 25.6 ± 2.1 min

SMILES: Nc1c[14cH]n[14cH]c1F [[^14C]3-F-4-AP, [2,6-^14C]4-amino-3-fluoropyridine]
- relative autoradiographic signal intensity in corpus callosum ([1]; Shiverer (Mbp^shi/shi) mice, normalized to cortex): 0.878 ± 0.043
- increase in signal, Shiverer versus control white matter ([1]; corpus callosum): 29%
- relative autoradiographic signal intensity in myelinated white matter ([1]; wild-type/control mice, normalized to cortex (gray matter = 1.0)): 0.679 ± 0.046

SMILES: Nc1c[14cH]n[14cH]c1 [[^14C]4-AP, [2,6-^14C]4-aminopyridine, reference compound]
- autoradiographic signal in the demyelinated area ([1]; LPC-injected mice, 3 days after injection, normalized to cortex): 0.733 ± 0.047
- autoradiographic signal in the contralateral control area ([1]; LPC-injected mice, opposite hemisphere, normalized to cortex): 0.507 ± 0.070
